Experimental data: publication PMC6459903, “The enzymes OSC1 and CYP716A263 produce a high variety of triterpenoids in the latex of Taraxacum koksaghyz” (Scientific Reports, 2019)

What was measured:
Assay type in all cases: cell-based
TkLUP = target: T1, TkLUP (Taraxacum kok-saghyz, UniProt A0A3B1EU92); experiment: transient expression in N. benthamiana leaves, GC-MS; details: with Tkhmgrc1; endogenous 2,3-oxidosqualene; predominant product
T1 construct: gene Lup; full-length cDNA; transient expression in Nicotiana benthamiana leaves
T1 sequence (A0A3B1EU92 1-758): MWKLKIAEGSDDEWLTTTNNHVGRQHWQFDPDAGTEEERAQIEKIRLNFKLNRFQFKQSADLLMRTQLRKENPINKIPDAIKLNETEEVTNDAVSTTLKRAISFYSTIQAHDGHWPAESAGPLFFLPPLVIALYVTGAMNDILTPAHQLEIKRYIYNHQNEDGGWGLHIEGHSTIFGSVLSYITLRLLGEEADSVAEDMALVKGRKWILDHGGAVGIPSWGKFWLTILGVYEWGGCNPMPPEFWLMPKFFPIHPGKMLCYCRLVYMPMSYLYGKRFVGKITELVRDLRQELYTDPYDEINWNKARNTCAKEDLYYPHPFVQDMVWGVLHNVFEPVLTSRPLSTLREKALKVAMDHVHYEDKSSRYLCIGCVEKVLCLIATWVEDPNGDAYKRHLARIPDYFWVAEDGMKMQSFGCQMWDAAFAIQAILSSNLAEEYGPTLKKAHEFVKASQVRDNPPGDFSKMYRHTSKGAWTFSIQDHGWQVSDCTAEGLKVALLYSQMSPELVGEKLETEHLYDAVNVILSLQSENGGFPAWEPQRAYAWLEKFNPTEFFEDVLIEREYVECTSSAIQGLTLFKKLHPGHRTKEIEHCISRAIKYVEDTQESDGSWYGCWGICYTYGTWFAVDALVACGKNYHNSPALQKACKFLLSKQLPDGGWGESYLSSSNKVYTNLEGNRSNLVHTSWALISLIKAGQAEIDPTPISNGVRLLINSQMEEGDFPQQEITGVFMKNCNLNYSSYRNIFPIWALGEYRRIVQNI

CYP716A263 = target: T2, CYP716A263 (Taraxacum kok-saghyz, UniProt A0A3S5GS06); experiment: co-expression in N. benthamiana leaves, GC-MS; details: C-3 oxidation to lupenone; lupeol formed in situ by co-expressed TkLUP with Tkhmgrc1
T2 construct: full-length 473 residues (1,422 bp), from latex cDNA; transient expression in Nicotiana benthamiana leaves with host reductase

CYP716A263/AtR2 = target: T3, CYP716A263/AtR2 (Taraxacum kok-saghyz, UniProt A0A3S5GS06); experiment: co-expression in S. cerevisiae, GC-MS; details: C-3 oxidation to taraxasterone; taraxasterol formed in situ by co-expressed TkLUPN-TkOSC1C; AtR2 reductase
T3 construct: full-length P450, 473 residues, co-expressed with Arabidopsis thaliana reductase AtR2 in S. cerevisiae CEN.PK2-1C; with NADPH--cytochrome P450 reductase 2 (Arabidopsis thaliana)

TkOSC6 = target: T4, TkOSC6 (Taraxacum kok-saghyz, UniProt A0A3S7RZ84); experiment: expression in S. cerevisiae, GC-MS; details: endogenous 2,3-oxidosqualene as substrate; erg7 repressed by CuSO4; main product
T4 construct: gene OSC6; unmodified full-length protein; expressed in S. cerevisiae CEN.PK2-1C and N. benthamiana
T4 sequence (A0A3S7RZ84 1-758): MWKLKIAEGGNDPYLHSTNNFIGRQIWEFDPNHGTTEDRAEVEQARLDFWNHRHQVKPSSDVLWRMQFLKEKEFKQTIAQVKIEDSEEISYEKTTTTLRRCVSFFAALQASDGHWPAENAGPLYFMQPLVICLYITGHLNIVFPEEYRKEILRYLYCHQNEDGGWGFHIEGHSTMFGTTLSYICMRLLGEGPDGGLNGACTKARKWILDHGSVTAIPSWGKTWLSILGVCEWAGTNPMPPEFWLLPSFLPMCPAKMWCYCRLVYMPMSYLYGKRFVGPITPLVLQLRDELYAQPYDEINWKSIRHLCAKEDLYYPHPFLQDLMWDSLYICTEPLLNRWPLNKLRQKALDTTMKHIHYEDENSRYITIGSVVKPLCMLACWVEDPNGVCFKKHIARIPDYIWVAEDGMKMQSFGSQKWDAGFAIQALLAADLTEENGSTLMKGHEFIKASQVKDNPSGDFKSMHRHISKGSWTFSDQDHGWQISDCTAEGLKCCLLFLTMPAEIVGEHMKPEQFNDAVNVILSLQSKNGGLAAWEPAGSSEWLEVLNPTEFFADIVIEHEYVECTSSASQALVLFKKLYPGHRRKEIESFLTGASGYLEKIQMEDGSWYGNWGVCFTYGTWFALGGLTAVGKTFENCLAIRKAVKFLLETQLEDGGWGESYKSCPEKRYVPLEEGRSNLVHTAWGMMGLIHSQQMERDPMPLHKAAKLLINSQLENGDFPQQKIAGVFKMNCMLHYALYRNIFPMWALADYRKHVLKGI

T3 sequence (A0A3S5GS06 1-473): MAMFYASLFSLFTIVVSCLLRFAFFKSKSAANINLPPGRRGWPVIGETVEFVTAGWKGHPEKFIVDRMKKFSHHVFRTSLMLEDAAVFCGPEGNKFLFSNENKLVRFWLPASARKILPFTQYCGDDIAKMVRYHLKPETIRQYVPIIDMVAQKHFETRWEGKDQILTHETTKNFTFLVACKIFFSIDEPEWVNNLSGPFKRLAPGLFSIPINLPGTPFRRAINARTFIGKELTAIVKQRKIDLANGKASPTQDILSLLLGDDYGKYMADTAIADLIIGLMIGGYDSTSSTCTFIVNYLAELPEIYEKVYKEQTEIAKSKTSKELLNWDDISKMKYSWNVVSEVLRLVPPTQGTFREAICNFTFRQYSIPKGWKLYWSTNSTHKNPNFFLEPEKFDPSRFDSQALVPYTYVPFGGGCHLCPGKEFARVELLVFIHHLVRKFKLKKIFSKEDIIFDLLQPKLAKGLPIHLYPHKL
T3 sequence (Q9SUM3 whole entry partner): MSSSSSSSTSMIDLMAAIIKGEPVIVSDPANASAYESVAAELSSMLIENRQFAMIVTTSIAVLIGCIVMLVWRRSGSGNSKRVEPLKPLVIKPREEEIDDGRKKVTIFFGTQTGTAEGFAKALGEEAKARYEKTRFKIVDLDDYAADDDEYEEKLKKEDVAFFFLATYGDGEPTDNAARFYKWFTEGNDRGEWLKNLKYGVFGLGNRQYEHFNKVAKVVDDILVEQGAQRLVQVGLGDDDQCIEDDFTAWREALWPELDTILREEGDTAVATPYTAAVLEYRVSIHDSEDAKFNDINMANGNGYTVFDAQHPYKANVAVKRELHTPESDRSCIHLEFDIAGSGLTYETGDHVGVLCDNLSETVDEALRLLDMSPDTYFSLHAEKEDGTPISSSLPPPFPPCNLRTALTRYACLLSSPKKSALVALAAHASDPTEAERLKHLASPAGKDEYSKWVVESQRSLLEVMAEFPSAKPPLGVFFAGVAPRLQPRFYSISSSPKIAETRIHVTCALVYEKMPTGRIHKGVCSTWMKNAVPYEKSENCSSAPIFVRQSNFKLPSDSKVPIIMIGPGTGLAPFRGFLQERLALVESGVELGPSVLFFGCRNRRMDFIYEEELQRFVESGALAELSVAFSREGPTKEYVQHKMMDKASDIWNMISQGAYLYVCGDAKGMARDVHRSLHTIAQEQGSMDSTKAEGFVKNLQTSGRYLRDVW
T2 sequence (A0A3S5GS06 1-473): as the sequence (A0A3S5GS06 1-473) above

## C=C(C)[C@@H]1CC[C@]2(C)CC[C@]3(C)[C@H](CC[C@@H]4[C@@]5(C)CC[C@H](O)C(C)(C)[C@@H]5CC[C@]43C)[C@@H]12 [lupeol]
TkLUP
  transient expression in N. benthamiana leaves, GC-MS: TkLUP in combination with Tkhmgrc1 led to the predominant production of lupeol
CYP716A263
  co-expression in N. benthamiana leaves, GC-MS: CYP716A263 is capable of converting lupeol into lupenone and exhibits a C-3 oxidation activity

## C=C1CC[C@]2(C)CC[C@]3(C)[C@H](CC[C@@H]4[C@@]5(C)CC[C@H](O)C(C)(C)[C@@H]5CC[C@]43C)[C@H]2[C@@H]1C [taraxasterol]
CYP716A263/AtR2
  co-expression in S. cerevisiae, GC-MS: taraxasterol, as the most abundant product, was converted to taraxasterone

## CC1(C)CC[C@]2(C)CC[C@]3(C)C(=CC[C@@H]4[C@@]5(C)CC[C@H](O)C(C)(C)[C@@H]5CC[C@]43C)[C@@H]2C1 [β-amyrin]
TkOSC6
  expression in S. cerevisiae, GC-MS: TkOSC6 expression in yeast led to the identification of β-amyrin as main product
